Assay results: US9828398B2, “Compound for bone scanning and use thereof” (TAIWAN HOPAX CHEMS. MFG. CO., LTD., priority 2015, dated 2017)

Experiment: Planar scintigraphy of 111In-compounds in normal rats
Assay type: in vivo
Conditions: 1, 24 and 48 hours after ^111In-OMS or ^111In-OB121
Description: FIG. 31 is planar scintigraphy of ^111In-Compounds ([…], iv, at 1-48 hours acquired 500,000, count) in normal rats.
Pamidronate (PAM), Methyl diphosphonate (MDP) and OMS are bone-related agents and were used as control group in present invention. Scintigraphic images, captured by a gamma camera equipped with low-energy, parallel-hole collimator or micro-PET, were obtained in 0.5-2 hours. The selected images are shown in FIGS. 29 and 30, wherein FIG. 29 compares the planar images of 30, 60, and 120 min of normal rats which were taken ^99mTc-PAM, ^99mTc-MDP, ^99mTc-OMS, ^99mTc-OB141, ^99mTc-OB 121 and ^99mTc-DTPA-BP respectively. FIG. 30 compares the planar images of 20, 60, and 150 min of normal rats which were taken ^99mTc-MDP, ^99mTc-DTPA-AMDP, and ^99mTc-MAMA-AMDP respectively. Higher joint-to-muscle (J/M) or bone-to-muscle (B/M) ratios and the better quality of bone images were achieved. […] Besides, as tetraazacyclic groups are very lipophilic so that they may have potential applications in the treatment of osteoporosis. Thus, tetraazacyclic groups were labeled with In-111 for longer observation.

With O=P(O)(O)C(O)(CN1CCN(CC(O)(P(=O)(O)O)P(=O)(O)O)CCN(CC(O)(P(=O)(O)O)P(=O)(O)O)CCN(CC(O)(P(=O)(O)O)P(=O)(O)O)CC1)P(=O)(O)O [OB-121, 1,4,7,10-Tetraazacyclododecane-1,4,7,10-tetrakis(2-hydroxy-ethylenebisphosphonate)] the “quality of planar images” value was “better compound for getting high quality images”.
